Key:
[1] = Plasma protein binding assay, filtration method; format: in vitro ADME; conditions: lithium-heparin plasma, mouse plasma, 37° C., one hour, read-out: Plasma protein binding (%) (±standard deviation) (converted)
Protocol: Plasma Protein Binding Assay
Plasma protein binding was determined using the filtration method:
Preparation of standards: working solutions were prepared for each calibration level by appropriate dilution of the corresponding stock solution. Calibration standards were prepared by spiking 147 μl PBS buffer with 3 μl of the corresponding working solution. Sample preparation: The sample and standard solution preparation was performed by mixing equal volumes of acetonitrile containing the internal standard (1 μM) with 75 μl sample, or 150 μl calibration standard solution, respectively. After vigorously shaking the samples were centrifuged (6000 g) for 5 minutes. Aliquots of the supernatants were subjected to LC-MS/MS analysis. Assay procedure: Compound stock solutions were diluted in acetonitrile to give a 50-fold concentrated working solution. The incubation solutions were prepared by adding 3 μl of a 50-fold concentrated working solution in acetonitrile to 147 μl of lithium-heparin plasma from mice giving an incubation concentration of 1 μM. […] The percentage of compound bound to plasma proteins (% PPB) was calculated using the following equation: PPB[%]=100−(concentrationcompound plasma filtrate/mean concentrationcompound filtrated plasma filtrate)×100.
Applying this protocol, plasmaprotein binding of examples and reference compounds was determined as listed below in Table 5.

PAMPA permeability assay = format: in vitro ADME; conditions: % of compound found in the receiver compartment after 16 hours; PBS pH 7.4, 5% DMSO, 23° C.
Protocol: Artificial membrane permeability was determined as follows: Tested compounds were dissolved to 10 mM in 100% DMSO. Permeability of compounds was measured in PBS (pH 7.4), 5% DMSO at 23° C. Safire (Tecan) plate reader was used for measurement the UV/Vis absorption. Protocol: Dilute stocks of tested compounds and controls with PBS to 1.67 mM and mix well by pipetting, add 280 μl of PBS, 5% DMSO to acceptor plate, add 5 μl of 2% L-α-Phosphatidylcholine suspension in dodecane to the membrane of donor plate. Immediately add 98 μl of PBS to donor plate and make the sandwich with acceptor plate. Add 42 μl of tested compounds and controls dilutions to […], cover the plate, place into camera and incubate for 16 hours. Make the equilibrium plate, add 225 μl of PBS, 3.7% DMSO and 25 μl of tested compounds and controls dilutions to UV plate. After 16 hours pull the donor plate out and transfer 250 μl from acceptor plate to UV plate. Scan UV plate on Safire (Tecan) plate reader from […]. Permeability is reported in % of compound found in the receiver compartment after the incubation period. Applying this protocol, PAMPA permeabilities of examples and reference compounds were determined as follows (see Table 4): […]

| SMILES | fraction unbound at 1 h, 1 µM [1] | melting point | PAMPA Permeability (PAMPA permeability assay) |
| --- | --- | --- | --- |
| Cc1cc(OCc2c(-c3c(Cl)cccc3Cl)noc2C(C)C)cnc1Oc1ccc(C(=O)O)cc1 [Example 3, 4-(5-((3-(2,6-Dichlorophenyl)-5-isopropylisoxazol-4-yl)methoxy)-3-methylpyridin-2-yloxy)benzoic acid] | 0.021 | 74 to 76 °C |  |
| CC(C)c1onc(-c2c(Cl)cccc2Cl)c1COc1ccc(Oc2ccc(C(=O)O)cc2)cc1 [Compound A, reference compound] | 0.007 |  | 32% |

Source: patent publication US8193192B2, “Heterocyclic FXR binding compounds” (Phenex Pharmaceuticals AG, priority 2006, dated 2012)
